Measurements published in patent US20260232666A1, “COMPOSITIONS AND METHODS FOR INHIBITION OF RAS” (TheRas, Inc., priority 2023, published 2026).

Columns and labels:
Type in all cases: binding
Conditions in all cases: 15 minutes reaction time point
[1] = biological target: T1, GTP-loaded KRAS4b (amino acids 1-169) G12C/C118S protein (Homo sapiens, UniProt P01116, C118S/G12C); experiment: Covalent cysteine 12 modification by MALDI-TOF MS, GTP-loaded KRAS G12C
T1 construct: KRAS4b (amino acids 1-169) G12C/C118S protein; made in house
How it was run: (§1)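 With several adducts, each species' height is expressed as a fraction of all observed protein peaks, scored on linear-mode spectra. Reactions run at pH 7.3 (HEPES, 150 mM NaCl, 1 mM MgCl2), using 1 μM protein and a 1:2.5 protein:compound ratio, and are sampled after 15 minutes in the dark.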

[2] = biological target: T2, GppNHp-loaded KRAS4b (amino acids 1-169) G12C/C118S protein (Homo sapiens, UniProt P01116, C118S/G12C); experiment: Covalent cysteine 12 modification by MALDI-TOF MS, GppNHp-loaded KRAS G12C
T2 construct: KRAS4b (amino acids 1-169) G12C/C118S protein; made in house
How it was run: as §1

[3] = biological target: T3, GDP-loaded KRAS4b (amino acids 1-169) G12C/C118S protein (Homo sapiens, UniProt P01116, C118S/G12C); experiment: Covalent cysteine 12 modification by MALDI-TOF MS, GDP-loaded KRAS G12C
T3 construct: KRAS4b (amino acids 1-169) G12C/C118S protein; made in house
How it was run: as §1

| Compound | GTP-KRAS G12C percent of modification [1] | GppNHp-KRAS G12C percent of modification [2] | GDP-KRAS G12C percent of modification [3] |
| --- | --- | --- | --- |
| C=CC(=O)N1CC[C@@H](N(C)c2nc(OC[C@@]34CCCN3C[C@H](F)C4)nc3c(F)c(-c4ccc(F)c5sc(N)c(C#N)c45)c(Cl)cc23)[C@@H]1C (atropisomer, axis not shown) [Compound 69] | D (percent of modification <10%) | D (percent of modification <10%) | D (percent of modification <10%) |
| C=CC(=O)N1C[C@H]2C[C@@H]1CN2c1nc(OC[C@@]23CCCN2C[C@H](F)C3)nc2c(F)c(-c3ccc(F)c4sc(N)c(C#N)c34)c(C(F)(F)F)cc12 [Compound 37] | D (percent of modification <10%) | D (percent of modification <10%) | C (10%≤percent of modification <50%) |
| C=CC(=O)N1CC2CC(C1)N2c1nc(OC[C@@]23CCCN2C[C@H](F)C3)nc2c(F)c(-c3ccc(F)c4sc(N)c(C#N)c34)c(C(F)(F)F)cc12 [Compound 46] | D (percent of modification <10%) | D (percent of modification <10%) | C (10%≤percent of modification <50%) |
| C=CC(=O)N1CC[C@@H](N(CC)c2nc(OC[C@@]34CCCN3C[C@H](F)C4)nc3c(F)c(-c4ccc(F)c5sc(N)c(C#N)c45)c(C(F)(F)F)cc23)[C@H]1CC [Compound 39] | C (10%≤percent of modification <50%) | C (10%≤percent of modification <50%) | C (10%≤percent of modification <50%) |
| C=CC(=O)N1CC[C@@H](N(C)c2nc(OC[C@@]34CCCN3C[C@H](F)C4)nc3c(F)c(-c4ccc(F)c5sc(N)c(C#N)c45)c(Cl)cc23)[C@@H]1C (atropisomer, axis not shown) [Compound 68] | A (percent of modification ≥70%) | A (percent of modification ≥70%) | A (percent of modification ≥70%) |
| C=CC(=O)N1CC[C@@H](N(CC)c2nc(OC[C@@]34CCCN3C[C@H](F)C4)nc3c(F)c(-c4ccc(F)c5sc(N)c(C#N)c45)ccc23)[C@@H]1C [Compound 57] | C (10%≤percent of modification <50%) | B (50≤percent of modification <70%) | A (percent of modification ≥70%) |
| C=CC(=O)N1CC[C@@H](N(C)c2nc(OC[C@@]34CCCN3C[C@H](F)C4)nc3c(F)c(-c4nc(N)cc(C)c4C(F)(F)F)c(Cl)cc23)[C@H]1C [Compound 78, 1-[(2R,3R)-3-[[7-[6-amino-4-methyl-3-(trifluoromethyl)-2-pyridyl]-6-chloro-8-fluoro-2-[[(2R,8S)-2-fluoro-1,2,3,5,6,7-hexahydropyrrolizin-8-yl]methoxy]quinazolin-4-yl]-methyl-amino]-2-methyl-pyrrolidin-1-yl]prop-2-en-1-one] | A (percent of modification ≥70%) | A (percent of modification ≥70%) | A (percent of modification ≥70%) |
| C=CC(=O)N1CC[C@@H](N(CC)c2nc(OC[C@@H]3C[C@@H](OC)CN3C)nc3c(F)c(-c4ccc(F)c5sc(N)c(C#N)c45)c(C(F)(F)F)cc23)[C@H]1C [Compound 45, 4-(4-(((2R,3R)-1-acryloyl-2-methylpyrrolidin-3-yl)(ethyl)amino)-8-fluoro-2-(((2S,4R)-4-methoxy-1-methylpyrrolidin-2-yl)methoxy)-6-(trifluoromethyl)quinazolin-7-yl)-2-amino-7-fluorobenzo[b]thiophene-3-carbonitrile] | B (50≤percent of modification <70%) | A (percent of modification ≥70%) | A (percent of modification ≥70%) |
| C=CC(=O)N1CC[C@@H](N(CC)c2nc(OC[C@@H]3C[C@@H](F)CN3C)nc3c(F)c(-c4ccc(F)c5sc(N)c(C#N)c45)c(Cl)cc23)[C@H]1C [Compound 60] | B (50≤percent of modification <70%) | B (50≤percent of modification <70%) | C (10%≤percent of modification <50%) |
| C=CC(=O)N1CC[C@@H](N(C)c2nc(N3CC(N(C)C)C3)nc3c(F)c(-c4ccc(F)c5sc(N)c(C#N)c45)c(C(F)(F)F)cc23)[C@H]1C [Compound 80] | C (10%≤percent of modification <50%) | B (50≤percent of modification <70%) | B (50≤percent of modification <70%) |
| C=CC(=O)N1CCC(N(C)c2nc(OC[C@@]34CCCN3C[C@H](F)C4)nc3c(F)c(-c4ccc(F)c5sc(N)c(C#N)c45)c(Cl)cc23)[C@H]1CC (stereo partly drawn) [Compound 2] | D (percent of modification <10%) | D (percent of modification <10%) | B (50≤percent of modification <70%) |
| C=CC(=O)N1CC[C@@H](N(CC)c2nc(OC[C@@H]3CCCN3C)nc3c(F)c(-c4ccc(F)c5sc(N)c(C#N)c45)c(Cl)cc23)[C@H]1C [Compound 58] | A (percent of modification ≥70%) | A (percent of modification ≥70%) | A (percent of modification ≥70%) |
| C=CC(=O)N1CCC(N(C)c2nc(OC[C@@H]3CCCN3C3CC3)nc3c(F)c(-c4ccc(F)c5sc(N)c(C#N)c45)c(C(F)(F)F)cc23)[C@H]1C (stereo partly drawn) [Compound 1] | C (10%≤percent of modification <50%) | C (10%≤percent of modification <50%) | B (50≤percent of modification <70%) |

Now from value to compound:

| GTP-KRAS G12C percent of modification [1] | GppNHp-KRAS G12C percent of modification [2] | GDP-KRAS G12C percent of modification [3] | Compound |
| --- | --- | --- | --- |
| A (percent of modification ≥70%) | A (percent of modification ≥70%) | A (percent of modification ≥70%) | C=CC(=O)N1CC[C@@H](N(C)c2nc(OC[C@@H]3CC4(CC4)CN3CC)nc3c(F)c(-c4ccc(F)c5sc(N)c(C#N)c45)c(Cl)cc23)[C@H]1C [Compound 97] |
| D (percent of modification <10%) | D (percent of modification <10%) | D (percent of modification <10%) | C=CC(=O)N1CC[C@@H](N(C)c2nc(OC[C@@H]3C[C@@H](F)CN3CC)nc3c(F)c(-c4ccc(F)c5sc(N)c(C#N)c45)c(Cl)cc23)[C@H]1C [Compound 98] |
| C (10%≤percent of modification <50%) | B (50≤percent of modification <70%) | B (50≤percent of modification <70%) | C=CC(=O)N1CC[C@@H](N(C)c2nc(OC[C@@]34CCCN3C[C@H](F)C4)nc3c(F)c(-c4ccc(F)c5oc(N)c(C#N)c45)c(C(F)(F)F)cc23)[C@H]1C [Compound 90] |
| B (50≤percent of modification <70%) | A (percent of modification ≥70%) | A (percent of modification ≥70%) | C=CC(=O)N1CC[C@@H](N(CC)c2nc(OC[C@@]34CCCN3C[C@H](F)C4)nc3c(F)c(-c4ccc(F)c5sc(N)c(C#N)c45)c(C(F)(F)F)cc23)[C@@H]1C [Compound 86] |
| C (10%≤percent of modification <50%) | A (percent of modification ≥70%) | A (percent of modification ≥70%) | C=CC(=O)N1CC[C@@H](N(C)c2nc(OC[C@@H]3C[C@@H](OC)CN3CC)nc3c(F)c(-c4ccc(F)c5sc(N)c(C#N)c45)c(Cl)cc23)[C@@H]1C [Compound 100] |
| C (10%≤percent of modification <50%) | A (percent of modification ≥70%) | B (50≤percent of modification <70%) | C=CC(=O)N1CC[C@@H](N(C)c2nc(OC[C@@H]3C[C@@H](F)CN3C)nc3c(F)c(-c4ccc(F)c5sc(N)c(C#N)c45)c(Cl)cc23)[C@@H]1C [Compound 82] |
| C (10%≤percent of modification <50%) | A (percent of modification ≥70%) | A (percent of modification ≥70%) | C=CC(=O)N1CC[C@@H](N(C)c2nc(OC[C@@]34CCCN3C[C@H](F)C4)nc3c(F)c(-c4nc(N)cc(C)c4C(F)(F)F)c(C(F)(F)F)cc23)[C@@H]1C [Compound 91] |
| C (10%≤percent of modification <50%) | C (10%≤percent of modification <50%) | C (10%≤percent of modification <50%) | C=CC(=O)N1CC[C@@H](N(C)c2nc(OCC3(CN4CCOCC4)CC3)nc3c(F)c(-c4ccc(F)c5sc(N)c(C#N)c45)c(C(F)(F)F)cc23)[C@H]1C [Compound 87] |
| A (percent of modification ≥70%) | A (percent of modification ≥70%) | A (percent of modification ≥70%) | C=CC(=O)N1CC[C@@H](N(C)c2nc(OC[C@@H]3C[C@@H](OC)CN3CC)nc3c(F)c(-c4ccc(F)c5sc(N)c(C#N)c45)c(Cl)cc23)[C@H]1C [Compound 99] |
